One data set relates to IR condensates. The data set is described as follows: Immunofluorescence for IR in human liver spheroids (primary human hepatocytes). The data set is classed as cell-based. The conditions noted are these: 3 nM insulin 10 min. As to the method:
For human liver spheroid experiments, primary human hepatocytes from a donor (BioIVT; lot #SMC) were used. Cells were thawed in Cryopreserved Hepatocyte Recovery Media (CHRM, ThermoFisher), spun down at 100 g for 8 min, and resuspended in seeding medium (William's E with 5.5 mM glucose, 2 mM GlutaMax, 15 mM HEPES, 5% FBS, 1% Pen/Strep, 100 nM hydrocortisone, and insulin 200 pM or 800 pM corresponding to the proper experimental group). Spheroids were formed using custom alginate microwells. In brief, 120,000 cells were seeded per well and spun at 50 g for 2 min to seed microwells, and cultured in a volume of 300 uL seeding medium. After 24 hours, cells were switched to maintenance media for the remainder of the experiment. This maintenance media was composed of William's E plus 6.25 μg/ml transferrin, 6.25 ng/ml selenium, 0.125% fatty acid-free BSA, 20 μM linoleic acid, 5.5 mM glucose, 2 mM GlutaMax, 15 mM HEPES, 0.5% Pen/Strep, and 100 nM hydrocortisone. Insulin was supplemented with concentrations adjusted to mimic healthy and disease-inducing states, either 200 pM for physiological or 800 pM for pathologic insulin levels. Media was exchanged every 48 hours throughout the experiment. […]

For the next data set, the system named is SMAD7. The data set is described as follows: SMAD7 transcript levels (RNA-seq, RT-qPCR) in HepG2 cells. It counts as cell-based, human. As to the method:
RNA was extracted using TRIzol™ reagent following the manufacturer's instructions (Thermo Fisher Scientific, 15596026). cDNA synthesis was performed using qScript cDNA Supermix according to the manufacturer's instructions, using 1000 ng RNA as input (qScript cDNA SuperMix, QuantaBio—95048-500). qPCR was performed on a Thermo Fisher Scientific QuantStudio 6 machine using Fast SYBR™ Green Master Mix (Thermo Fisher Scientific 4385618). Expression data is presented after calculating the relative expression compared with the housekeeping gene RPLP0, using the equation Relative Quantification (RQ)=100/(2^(Target Gene Ct−RPLP0Ct). When data is reported relative to a sample condition, the condition of reference was set as 1 and the data of the other conditions were reported as a ratio (condition/condition of reference).
RNA sequencing was performed by the Whitehead Institute Genome Technology Core. Libraries were prepared using the KAPA HyperPrep stranded RNA kit following manufacturer's instructions. Samples were sequenced on a HiSeq2500 in High-Output mode generating 50 bases, single-end reads.
RNA-sequencing (RNA-seq) bioinformatics analysis was performed on the Whitehead High-Performance Computing Facility using the nf-core RNA-seq pipeline v1.4.2 (81) with Nextflow v20.04.1. Quality control of .fastq files was performed with FastQC v0.11.8. The reads were single-end and the strandedness was set to reverse. Low quality sequences were trimmed using Trim Galore!v0.6.4. Alignment was performed against the hg19 genome assembly using STAR v2.6.1d (85) and duplicates were marked using Picard MarkDuplicates v2.21.1. Quantification of transcripts using featureCounts v1.6.4 (86). Differential expression analysis was performed using edgeR v3.26.5 (87). deepTools v3.3.1 (88), dupRadar v1.14.0 (89), Qualimap v.2.2.2-dev (90), and MultiQC v1.7 were used for quality control. ERCC92 was used as RNA spike-in.

The conditions of data set [1]: cited from earlier work.

The source of these data is patent US20250186379A1, “METHODS AND AGENTS FOR DECREASING INSULIN RESISTANCE” (Whitehead Institute for Biomedical Research, priority 2021, published 2025).

“Also recorded” adds a separate entry of the source. Where two headings read alike, the source gives them in different places.

As to “insulin: insulin (Sigma Aldrich, I9278-5ML) used for acute stimulation and chronic physiological or pathological exposure”, in the data set on IR condensates (insulin sensitive human liver spheroids), the “IR signal intensity in cytoplasmic and nuclear condensates/puncta” value is “leads to an increase in IR signal intensity in cytoplasmic and nuclear condensates; also recorded: produced an increase in IR signal intensity in cytoplasmic and nuclear puncta”. For the same compound, the SMAD7 gene expression entry in the data set with SMAD7 (insulin resistant cells, acute insulin stimulation) is “nor did it cause upregulation of SMAD7 gene expression; also recorded: nor did it upregulate SMAD7 gene expression”. In addition, the SMAD7 expression entry in the data set with SMAD7 (insulin sensitive cells, before and after insulin stimulation (RNA-seq)) was “upregulated”.
On to `CN(C)C(=N)N=C(N)N` [metformin, reference compound], for which the “IR signal in cytoplasmic and nuclear condensates/puncta” value with IR condensates (insulin resistant human liver spheroids + metformin) is reported as “partially rescued”. In addition, in the data set on SMAD7 (metformin-treated insulin resistant cells), the SMAD7 gene expression result was “elevated”. In addition, the “concentration of metformin in the plasma of T2D patients” value in data set [1] (T2D patients (Example 1)) was about 12.5 µM; in data set [1] (T2D patients (Example 2, refs 58-60)), about 12.5 µM.
